Here are results for 10 molecules from patent US12398154B2, “Azaquinazoline pan-KRas inhibitors” (Mirati Therapeutics, Inc., priority 2020, dated 2025).

Assay [1] has as its target T1, KRas Q61H (Homo sapiens, UniProt P01116, Q61H).
T1 construct: Biotinylated KRas (corresponding to amino acids 1-169, produced at Accelegan Inc.); biotin (biotinylated); purchased Accelegan Inc
The assay is described as follows: KRas binding assay (TR-FRET displacement).
Description: (§1) The ability of a compound to bind to KRas was measured using a TR-FRET displacement assay. […] After a 60-minute incubation at room temperature, the reaction was measured using a BMG LABTECH CLARIO star Plus via TR-FRET. […] The POC values were fit to a 4-parameter IC50 equation and the IC50 value reported.

The target of assay [2] is KRas WT (Homo sapiens, UniProt P01116). The experiment in a line: biochemical.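 Note: binding to KRas read as TR-FRET displacement after a one-hour room-temperature incubation, IC50 derived from percent-of-control values.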
Description: as §1
In assay [3] the target is KRas G12R (Homo sapiens, UniProt P01116, G12R). The assay is described as follows: biochemical.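 Note: TR-FRET displacement assay of compound binding to KRas, read after one hour at room temperature, potency from a four-parameter fit of percent-of-control values.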
Description: as §1
In assay [4] the target is KRas G12D (Homo sapiens, UniProt P01116, G12D). The assay is described as follows: biochemical.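 Note: TR-FRET displacement binding assay on KRas, read after a one-hour incubation at room temperature, IC50 fitted from percent-of-control values.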
Description: as §1
Assay [5] concerns the target KRas G12S (Homo sapiens, UniProt P01116, G12S). The experiment in a line: biochemical.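 Note: TR-FRET displacement binding to KRas, read after one hour incubation at room temperature, IC50 from four-parameter fit of percent of control.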
Description: as §1
The target in assay [6] is KRas G12V (Homo sapiens, UniProt P01116, G12V). The assay is described as follows: biochemical.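 Note: KRas binding measured by TR-FRET displacement at room temperature, IC50 fitted from percent of control values.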
Description: as §1
Assay [7] addresses KRas G12A (Homo sapiens, UniProt P01116, G12A). The experiment in a line: biochemical.
Description: as §1
The target in assay [8] is KRas G12C (Homo sapiens, UniProt P01116, G12C). The assay is described as follows: biochemical.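 Note: binding to KRas assessed by TR-FRET displacement after one hour incubation at room temperature, potency fitted from percent-of-control values.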
Description: as §1
The target in assay [9] is T2, KRas G13D (Homo sapiens, UniProt P01116, G13D).
T2 construct: Biotinylated KRas (corresponding to amino acids 1-169, produced at Accelegan Inc.); biotin (biotinylated); purchased Accelegan Inc
The assay is described as follows: KRas binding assay (TR-FRET displacement).
Description: as §1

Sequence of KRas G12S (P01116 1-169 isoform P01116-2 G12S): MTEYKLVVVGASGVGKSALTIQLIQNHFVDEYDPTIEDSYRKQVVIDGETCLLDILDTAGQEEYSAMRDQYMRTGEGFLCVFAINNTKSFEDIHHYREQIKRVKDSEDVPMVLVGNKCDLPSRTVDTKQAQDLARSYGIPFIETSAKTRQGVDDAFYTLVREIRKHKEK
Sequence of KRas G12C (P01116 1-169 isoform P01116-2 G12C): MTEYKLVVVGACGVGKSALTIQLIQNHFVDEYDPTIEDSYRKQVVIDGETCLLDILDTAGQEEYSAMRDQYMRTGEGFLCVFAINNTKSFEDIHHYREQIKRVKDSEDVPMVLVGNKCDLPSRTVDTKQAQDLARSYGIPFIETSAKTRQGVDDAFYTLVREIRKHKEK
Sequence of KRas G12A (P01116 1-169 isoform P01116-2 G12A): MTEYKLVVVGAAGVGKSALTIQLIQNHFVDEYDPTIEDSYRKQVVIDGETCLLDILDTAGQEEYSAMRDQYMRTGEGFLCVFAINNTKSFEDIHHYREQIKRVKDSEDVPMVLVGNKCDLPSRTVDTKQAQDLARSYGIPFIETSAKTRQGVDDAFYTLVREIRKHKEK
Sequence of KRas G12R (P01116 1-169 isoform P01116-2 G12R): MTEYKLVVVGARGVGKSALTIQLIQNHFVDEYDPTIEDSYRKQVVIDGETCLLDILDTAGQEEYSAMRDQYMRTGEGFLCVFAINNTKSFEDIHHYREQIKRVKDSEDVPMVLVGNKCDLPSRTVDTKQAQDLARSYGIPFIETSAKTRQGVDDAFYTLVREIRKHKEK
Sequence of KRas G12D (P01116 1-169 isoform P01116-2 G12D): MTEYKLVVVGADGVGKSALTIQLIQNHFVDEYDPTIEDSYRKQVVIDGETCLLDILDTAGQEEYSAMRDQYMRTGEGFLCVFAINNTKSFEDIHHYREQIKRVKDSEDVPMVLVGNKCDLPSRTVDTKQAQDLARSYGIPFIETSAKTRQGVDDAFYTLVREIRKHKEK
Sequence of KRas WT (P01116 1-169 isoform P01116-2): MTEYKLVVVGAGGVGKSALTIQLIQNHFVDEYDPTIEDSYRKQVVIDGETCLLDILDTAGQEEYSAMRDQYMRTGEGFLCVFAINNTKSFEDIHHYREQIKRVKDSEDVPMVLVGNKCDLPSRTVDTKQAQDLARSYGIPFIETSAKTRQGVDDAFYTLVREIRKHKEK
T1 sequence (P01116 1-169 isoform P01116-2 Q61H): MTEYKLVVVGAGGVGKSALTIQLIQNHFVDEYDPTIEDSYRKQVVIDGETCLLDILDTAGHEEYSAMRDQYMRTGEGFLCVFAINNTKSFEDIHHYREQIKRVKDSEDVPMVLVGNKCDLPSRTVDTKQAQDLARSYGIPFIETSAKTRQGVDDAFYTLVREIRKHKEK
T2 sequence (P01116 1-169 isoform P01116-2 G13D): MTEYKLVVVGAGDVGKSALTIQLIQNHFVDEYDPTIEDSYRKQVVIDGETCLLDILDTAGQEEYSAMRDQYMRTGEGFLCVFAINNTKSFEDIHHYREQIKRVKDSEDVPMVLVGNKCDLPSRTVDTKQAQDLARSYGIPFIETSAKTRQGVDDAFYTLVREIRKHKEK
Sequence of KRas G12V (P01116 1-169 isoform P01116-2 G12V): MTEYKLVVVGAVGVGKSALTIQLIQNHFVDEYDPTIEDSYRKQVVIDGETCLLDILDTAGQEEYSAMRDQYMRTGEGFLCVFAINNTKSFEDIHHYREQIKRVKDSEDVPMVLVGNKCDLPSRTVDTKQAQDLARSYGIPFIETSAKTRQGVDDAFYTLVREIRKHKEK

Consider `OC1CC2CC(C1)N(c1nc(OCC34CCCN3CCC4)nc3c(F)c(-c4cccc5cccc(Cl)c45)ncc13)C2` (stereo not drawn) [Example 106, 6-(7-(8-chloronaphthalen-1-yl)-8-fluoro-2-((tetrahydro-1H-pyrrolizin-7a(5H)-yl)methoxy)pyrido[4,3-d]pyrimidin-4-yl)-6-azabicyclo[3.2.1]octan-3-ol], for which the IC50 in assay [1] was 2340 nM; in assay [2], 2.1 µM; in assay [3], 1.51 µM; in assay [4], 3.63 µM; in assay [5], 0.369 µM; in [6], 0.612 µM. The values for the IC50 in assay [7], in assay [8] and in [9] were 0.722 µM, 1.13 µM and 2340 nM, respectively.

In the case of `NC(=O)N1CC(Nc2nc(OCC34CCCN3CCC4)nc3c(F)c(-c4cccc5cccc(Cl)c45)ncc23)C1` [Example 107, 3-((7-(8-chloronaphthalen-1-yl)-8-fluoro-2-((tetrahydro-1H-pyrrolizin-7a(5H)-yl)methoxy)pyrido[4,3-d]pyrimidin-4-yl)amino)azetidine-1-carboxamide], the IC50 in assay [1] was 8780 nM; in assay [2] it was 8.53 µM; in [3] it was 4.62 µM; in assay [4], 10.8 µM; in assay [5], 6.85 µM; in [6], 3.41 µM. Further, the results for the IC50 in assay [7], in [8] and in assay [9] were 6.52 µM, 3.52 µM and 8790 nM, respectively.

For the molecule `Fc1c(-c2cccc3cccc(Cl)c23)ncc2c(N3CCCC(n4cccn4)C3)nc(OCC34CCCN3CCC4)nc12` (stereo not drawn) [Example 109, 4-(3-(1H-pyrazol-1-yl)piperidin-1-yl)-7-(8-chloronaphthalen-1-yl)-8-fluoro-2-((tetrahydro-1H-pyrrolizin-7a(5H)-yl)methoxy)pyrido[4,3-d]pyrimidine], the IC50 came to 4940 nM in assay [1]; 3.99 µM in assay [2]; 4.11 µM in [3]; 10.2 µM in assay [4]; 7.39 µM in assay [5]; 7.43 µM in [6]. Besides, the IC50 in assay [7] amounted to 4.28 µM; in assay [8], 4.25 µM; in [9] it was 4340 nM.

With `O=C1NCC(CNc2nc(OCC34CCCN3CCC4)nc3c(F)c(-c4cccc5cccc(F)c45)ncc23)O1` (stereo not drawn) [Example 110, 5-(((8-fluoro-7-(8-fluoronaphthalen-1-yl)-2-((tetrahydro-1H-pyrrolizin-7a(5H)-yl)methoxy)pyrido[4,3-d]pyrimidin-4-yl)amino)methyl)oxazolidin-2-one], the IC50 in [1] stood at 10100 nM; in [2], 8.81 µM; in assay [3] it was 2.48 µM; in assay [4] it was 26.9 µM; in assay [5] it was 4.37 µM; in [6], 3.97 µM. Moreover, the results for the IC50 in assay [7], in assay [8] and in assay [9] were 9.28 µM, 5.22 µM and 9330 nM, respectively.

On to `C[C@@H]1C[C@@H](O)CN(c2nc(OCC34CCCN3CCC4)nc3c(F)c(-c4cccc5cccc(F)c45)ncc23)C1` [Example 112, (3R,5R)-1-(8-fluoro-7-(8-fluoronaphthalen-1-yl)-2-((tetrahydro-1H-pyrrolizin-7a(5H)-yl)methoxy)pyrido[4,3-d]pyrimidin-4-yl)-5-methylpiperidin-3-ol], for which the IC50 amounted to 20700 nM in [1]; 36.6 µM in assay [2]; 28.1 µM in [3]; 37.5 µM in assay [4]; 31 µM in [5]; 25.9 µM in assay [6]. Also, the IC50 in assay [7] was found to be 25.3 µM; in [8], 27.5 µM; in assay [9] it was 13300 nM.

As for `OCC1CCCN(c2nc(OCC34CCCN3CCC4)nc3c(F)c(-c4cccc5cccc(F)c45)ncc23)C1` (stereo not drawn) [Example 113, (1-(8-fluoro-7-(8-fluoronaphthalen-1-yl)-2-((tetrahydro-1H-pyrrolizin-7a(5H)-yl)methoxy)pyrido[4,3-d]pyrimidin-4-yl)piperidin-3-yl)methanol], the IC50 came to 12200 nM in [1]; 8.47 µM in assay [2]; 16 µM in assay [3]; 14.2 µM in assay [4]; 10.6 µM in [5]; 12 µM in assay [6]. Also, the IC50 in assay [7] was found to be 9.48 µM; in [8], 7.11 µM; in assay [9], 12100 nM.

Turning to `Fc1c(-c2cccc3cccc(F)c23)ncc2c(N3CCCC4(CC4)C3)nc(OCC34CCCN3CCC4)nc12` [Example 114, 8-fluoro-7-(8-fluoronaphthalen-1-yl)-4-(5-azaspiro[2.5]octan-5-yl)-2-((tetrahydro-1H-pyrrolizin-7a(5H)-yl)methoxy)pyrido[4,3-d]pyrimidine], the IC50 in assay [1] was 43300 nM; in assay [2] it was 2.71 µM; in assay [3], 3.75 µM; in assay [4] it was 4.38 µM; in assay [5] it was 2.81 µM; in assay [6], 2.86 µM. The figures for the IC50 in [7], in assay [8] and in assay [9] were 2.64 µM, 2.48 µM and 29900 nM, respectively.

For `Fc1c(-c2cccc3cccc(F)c23)ncc2c(NCCc3c[nH]nn3)nc(OCC34CCCN3CCC4)nc12` [Example 115, N-(2-(1H-1,2,3-triazol-4-yl)ethyl)-8-fluoro-7-(8-fluoronaphthalen-1-yl)-2-((tetrahydro-1H-pyrrolizin-7a(5H)-yl)methoxy)pyrido[4,3-d]pyrimidin-4-amine], the IC50 in assay [1] was 22300 nM; in assay [2] it was 11.6 µM; in [3], 4.64 µM; in [4], 30.9 µM; in assay [5], 10.9 µM; in assay [6], 5.8 µM. Besides, the results for the IC50 in assay [7], in [8] and in assay [9] were 10.5 µM, 6.56 µM and 21200 nM, respectively.

In the case of `CC1CC(O)CCN(c2nc(OCC34CCCN3CCC4)nc3c(F)c(-c4cccc5cccc(F)c45)ncc23)C1` (stereo not drawn) [Example 116, 1-(8-fluoro-7-(8-fluoronaphthalen-1-yl)-2-((tetrahydro-1H-pyrrolizin-7a(5H)-yl)methoxy)pyrido[4,3-d]pyrimidin-4-yl)-6-methylazepan-4-ol], the IC50 is 5200 nM in [1]; 3.45 µM in assay [2]; 6.27 µM in assay [3]; 3.31 µM in [4]; 3.59 µM in [5]; 4.09 µM in [6]. For the same molecule, the IC50 in assay [7] is 2.74 µM; in assay [8] it was 4.41 µM; in assay [9], 2700 nM.

On to `OCC1CN(c2nc(OCC34CCCN3CCC4)nc3c(F)c(-c4cccc5cccc(F)c45)ncc23)CCC1O` (stereo not drawn) [Example 117, 1-(8-fluoro-7-(8-fluoronaphthalen-1-yl)-2-((tetrahydro-1H-pyrrolizin-7a(5H)-yl)methoxy)pyrido[4,3-d]pyrimidin-4-yl)-3-(hydroxymethyl)piperidin-4-ol], for which the IC50 in assay [1] was 8240 nM; in assay [2], 9.86 µM; in [3] it was 10.1 µM; in assay [4], 32 µM; in assay [5], 11 µM; in assay [6] it was 11.1 µM. Also, the IC50 stood at 9.15 µM in [7], 6.57 µM in assay [8] and 5680 nM in assay [9].
